Reference: patent US5061713A, “Analgesic oxazolopyridine compounds” (Science et Organization, priority 1989, dated 1991)

Tests used:
writhing movements = assay: analgesic activity, phenyl-p-benzoquinone writhing movements (technique derived from Siegmund); format: in vivo; conditions: Mus musculus; mice, oral, 1 hour before i.p. phenyl-p-benzoquinone; counted 5th to 10th minute; read-out: ED50, the dose producing a 50% activity (% decrease in the number of writhing movements)
Protocol: The activity against pain was investigated in mice (23-25 g) according to a protocol derived from the technique described by SIEGMUND (SIEGMUND E.A., R. A. CADMUS & GOLU, J. Pharm. Exp. Ther. 119, 184, 1957). The mice, randomized in batches of 12 animals, received the treatment orally (excipient for the controls) 1 hour before the intraperitoneal injection of a 0.02% aqueous-alcoholic solution of phenyl-p-benzoquinone (Sigma). The writhing movements are counted between the 5th and 10th minute after injection.
The percentage activity obtained was evaluated for each dose (% decrease in the number of writhing movements in the treated animals relative to the controls). An ED50, the dose producing a 50% activity, was determined for each product.

edema = assay: anti-inflammatory activity, acute inflammation induced by carrageenan in the rat hind foot (method of Winter); format: in vivo; conditions: rats, 1 hour before carrageenan, edema determined 3 hours after injection, read-out: ED30, the dose producing a 30% activity (percentage decrease in the mean edema)
Protocol: The anti-inflammatory potential of the compounds was investigated on a model of acute inflammation induced by the subcutaneous injection of a solution of carrageenan into the rat hind foot, according to a technique based on the method of WINTER, C.A., E. A. RISLEY and G. N. NUSS (Proc. Soc. Exp. Med. 111, 554, 1962). The rats (100-120 g), randomized in batches of 8, were treated (including the controls, which receive excipient) 1 hour before the local injection of a 0.5% suspension of carrageenan (Sigma type IV; 0.1 ml per rat). The edema is determined 3 hours after injection, by plethysmometric measurement (UGO BASILE water plethysomometer) of the volume of each of the hind feet (edema=volume of the inflamed foot-volume of the non-inflamed foot).
The percentage activity corresponds to the percentage decrease in the mean edema of the batch compared with the mean of the corresponding control batch. An ED30, the dose producing a 30% activity, was determined.

Row | SMILES | ED50 (writhing movements) | ED30 (edema)
1 | Fc1ccccc1-c1nc2ncccc2o1 [Example 6 of U.S. Pat. No. 4,038,396, 2-(2-fluorophenyl)oxazolo[4,5-b]pyridine] | ~12 mg/kg | 50 mg/kg
2 | CCCC(=O)c1ccnc2nc(-c3ccccc3F)oc12 [Example 6, 2-(2-FLUOROPHENYL)-7-BUTYRYLOXAZOLO[4,5-b]PYRIDINE] | ~8 mg/kg | –
3 | CCCC(=O)c1ccnc2nc(-c3ccccc3)oc12 [Example 2, 2-PHENYL-7-BUTYRYLOXAZOLO[4,5-b]PYRIDINE] | ~5 mg/kg | –
